The values below come from patent US20130040912A1, “PIPERAZINOTRIAZINES AS PI3K INHIBITORS FOR USE IN THE TREATMENT ANTIPROLIFERATIVE DISORDERS” (UNIVERSITY OF BASEL, priority 2010, published 2013).

Read-outs that look alike come from different tables or passages of the source.

One test addresses PI3Kalpha (Homo sapiens, UniProt P42336). The test is described as follows: in vitro PI3Kalpha inhibition, Kinase Glo assay. Type of test: biochemical. The following applies: for remaining activity at 0.2 µM: Kinase Glo assay at 200 nM, % remaining activity, the smaller the value, the stronger the inhibition, read-out: In vitro PI3Kα, % remaining activity; for inhibitor activity against PI3K (in words): compared with ZSTK474 (4). Here is the method: (§1) The inhibitor efficacy and the cell permeability of the compounds of the invention are measured by in cell Western inhibition assay on melanoma cell line A2058 and TSC2−/− MEFs cell line. Furthermore, in vitro PI3Kalpha inhibition is measured (Table 1).
(In general: Kinase-Glo reads ATP consumption through a luciferase reaction.)

A further test has as its system melanoma cell line A2058. The test is described as follows: in cell Western inhibition assay on melanoma cell line A2058. Type of test: cell-based. The following applies: Homo sapiens, the smaller the value, the stronger the inhibition. Here is the method: as §1
The next test relates to TSC2-/- MEFs cell line. The test is described as follows: in cell Western inhibition assay on TSC2-/- MEFs cell line. It is filed as cell-based. The following applies: for activity at 1 µM: in cell Western, the smaller the value, the stronger the inhibition, read-out: TSC2-/- MEFs cell inhibition pS6, % remaining activity; for selectivity to mTOR (in words): compared with ZSTK474 (4). Here is the method:
as §1

A further test concerns the target PI3Kgamma isoform (Homo sapiens, UniProt P48736). The test is described as follows: fluorescence correlation spectroscopy binding to PI3Kgamma. The following applies: binding leads to an increase in diffusion time. Here is the method: Fluorophore containing compound 13 can be used as a reference inhibitor by fluorescence correlation spectroscopy experiments in which the binding constants of novel inhibitors are determined. […] When the enzyme is saturated with compound 13, new possible ligands can be tested by observing the release of compound 13. This leads to a decrease in diffusion time.

Where [1] appears, read: read-out: A2058 cell inhibition pPKB/PKB, % remaining activity.
Setting [2] is: read-out: A2058 cell inhibition pS6, % remaining activity.

PI3Kalpha, sequence (P42336 whole entry, species assumed): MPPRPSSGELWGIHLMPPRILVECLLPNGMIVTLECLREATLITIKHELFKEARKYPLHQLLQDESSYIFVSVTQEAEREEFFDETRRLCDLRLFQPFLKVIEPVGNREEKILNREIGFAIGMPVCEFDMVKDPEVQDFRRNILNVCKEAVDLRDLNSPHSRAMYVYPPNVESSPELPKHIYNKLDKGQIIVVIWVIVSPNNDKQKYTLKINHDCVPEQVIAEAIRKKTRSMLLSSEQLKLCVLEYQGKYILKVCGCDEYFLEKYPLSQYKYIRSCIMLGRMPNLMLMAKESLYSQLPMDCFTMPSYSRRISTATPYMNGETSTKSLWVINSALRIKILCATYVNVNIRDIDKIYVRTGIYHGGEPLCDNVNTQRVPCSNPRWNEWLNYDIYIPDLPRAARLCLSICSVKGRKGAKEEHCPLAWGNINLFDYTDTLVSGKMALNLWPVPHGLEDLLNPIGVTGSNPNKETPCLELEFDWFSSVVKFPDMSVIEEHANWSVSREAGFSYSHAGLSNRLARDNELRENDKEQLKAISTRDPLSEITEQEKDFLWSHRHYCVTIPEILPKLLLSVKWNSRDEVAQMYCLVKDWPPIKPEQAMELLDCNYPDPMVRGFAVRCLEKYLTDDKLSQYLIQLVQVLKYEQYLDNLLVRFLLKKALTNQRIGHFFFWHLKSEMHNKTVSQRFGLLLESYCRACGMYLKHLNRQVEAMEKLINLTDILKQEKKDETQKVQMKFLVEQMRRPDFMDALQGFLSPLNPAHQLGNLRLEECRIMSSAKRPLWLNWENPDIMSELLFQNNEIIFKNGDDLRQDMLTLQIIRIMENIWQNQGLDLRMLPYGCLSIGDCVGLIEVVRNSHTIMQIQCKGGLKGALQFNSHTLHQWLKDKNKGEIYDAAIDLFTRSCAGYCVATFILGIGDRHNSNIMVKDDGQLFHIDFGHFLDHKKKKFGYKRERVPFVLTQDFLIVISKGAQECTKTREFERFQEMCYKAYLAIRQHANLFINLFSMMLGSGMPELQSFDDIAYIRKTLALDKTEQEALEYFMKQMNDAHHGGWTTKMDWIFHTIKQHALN
PI3Kalpha, sequence (P27986 whole entry partner, species assumed): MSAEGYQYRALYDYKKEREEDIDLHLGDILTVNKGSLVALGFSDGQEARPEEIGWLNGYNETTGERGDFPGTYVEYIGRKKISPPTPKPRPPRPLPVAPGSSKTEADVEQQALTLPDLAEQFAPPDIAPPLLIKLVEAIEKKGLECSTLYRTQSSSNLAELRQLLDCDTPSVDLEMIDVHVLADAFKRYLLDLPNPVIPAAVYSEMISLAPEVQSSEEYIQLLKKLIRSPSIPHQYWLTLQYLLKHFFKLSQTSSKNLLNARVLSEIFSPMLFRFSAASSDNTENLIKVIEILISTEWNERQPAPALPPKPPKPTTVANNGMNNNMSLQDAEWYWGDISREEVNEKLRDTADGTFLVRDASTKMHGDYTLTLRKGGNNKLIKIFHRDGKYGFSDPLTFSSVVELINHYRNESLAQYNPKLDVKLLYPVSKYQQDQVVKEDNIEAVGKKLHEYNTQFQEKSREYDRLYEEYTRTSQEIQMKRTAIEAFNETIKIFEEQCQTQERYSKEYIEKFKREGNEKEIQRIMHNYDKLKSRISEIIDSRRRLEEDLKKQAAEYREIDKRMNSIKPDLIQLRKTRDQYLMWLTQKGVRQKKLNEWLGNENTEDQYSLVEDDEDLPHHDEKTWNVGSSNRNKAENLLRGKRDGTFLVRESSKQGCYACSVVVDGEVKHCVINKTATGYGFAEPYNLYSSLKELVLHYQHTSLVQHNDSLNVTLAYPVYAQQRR
PI3Kgamma isoform, sequence (P48736 whole entry, the tested form may be a part, canonical isoform): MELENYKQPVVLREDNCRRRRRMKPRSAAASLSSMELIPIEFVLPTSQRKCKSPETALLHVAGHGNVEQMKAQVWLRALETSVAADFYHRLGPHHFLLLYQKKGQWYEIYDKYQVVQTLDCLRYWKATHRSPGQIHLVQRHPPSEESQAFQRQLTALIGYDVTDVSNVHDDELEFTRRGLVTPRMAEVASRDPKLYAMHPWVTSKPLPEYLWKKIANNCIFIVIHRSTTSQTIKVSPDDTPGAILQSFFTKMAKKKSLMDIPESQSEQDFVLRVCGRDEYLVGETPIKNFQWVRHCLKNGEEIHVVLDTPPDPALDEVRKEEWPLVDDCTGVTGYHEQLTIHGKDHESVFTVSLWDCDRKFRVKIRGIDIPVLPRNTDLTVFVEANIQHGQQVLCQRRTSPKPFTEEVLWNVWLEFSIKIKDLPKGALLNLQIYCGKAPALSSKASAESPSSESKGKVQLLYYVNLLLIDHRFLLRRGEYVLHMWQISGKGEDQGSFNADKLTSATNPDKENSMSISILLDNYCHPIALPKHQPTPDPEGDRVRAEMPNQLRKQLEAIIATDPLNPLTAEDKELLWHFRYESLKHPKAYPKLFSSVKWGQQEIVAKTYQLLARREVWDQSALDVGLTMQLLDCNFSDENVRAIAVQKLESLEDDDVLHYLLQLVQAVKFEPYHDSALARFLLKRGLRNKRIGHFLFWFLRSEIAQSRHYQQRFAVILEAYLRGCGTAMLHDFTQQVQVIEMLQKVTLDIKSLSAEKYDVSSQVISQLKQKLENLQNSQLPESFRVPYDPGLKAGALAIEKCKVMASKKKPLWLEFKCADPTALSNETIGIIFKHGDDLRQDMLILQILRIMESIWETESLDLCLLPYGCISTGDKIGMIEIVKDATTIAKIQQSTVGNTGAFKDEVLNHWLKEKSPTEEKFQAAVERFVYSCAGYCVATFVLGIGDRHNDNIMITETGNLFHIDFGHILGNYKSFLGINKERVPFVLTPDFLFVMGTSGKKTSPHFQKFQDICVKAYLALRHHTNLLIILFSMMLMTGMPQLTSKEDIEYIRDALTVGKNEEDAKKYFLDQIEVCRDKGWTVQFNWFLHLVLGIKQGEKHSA

As to `FC(F)c1nc2ccccc2n1-c1nc(N2CCOCC2)nc(N2CCOCC2)n1` [Compound 4, 4,4′-(6-(2-(Difluoromethyl)-1H-benzo[d]imidazol-1-yl)-1,3,5-triazine-2,4-diyl)dimorpholine, reference compound], on PI3Kalpha, the remaining activity (in general, what remains of the control signal, in per cent) at 0.2 µM turned out to be 13%. The activity at 1 µM is 3.63 ± 1.1% with melanoma cell line A2058 (setting [1]), 22.5 ± 0.13% in the test on melanoma cell line A2058 (setting [2]) and 37.9 ± 4.21% with TSC2-/- MEFs cell line.

`CN1CCN(c2nc(N3CCOCC3)nc(-n3c(C(F)F)nc4ccccc43)n2)CC1` [Compound 5, 4-(4-(2-(Difluoromethyl)-1H-benzo[d]imidazol-1-yl)-6-(4-methylpiperazin-1-yl)-1,3,5-triazin-2-yl)morpholine]: on PI3Kalpha, the “activity (in words)” value is listed as “substantially more active than compound 17”, the remaining activity at 0.2 µM was 33% and the “inhibitor activity against PI3K (in words)” value is on record as “Increasing of inhibitor activity against PI3K”. In addition, the activity at 1 µM in the test on melanoma cell line A2058 (setting [1]) amounted to 4.13 ± 0.37%. The activity at 1 µM with melanoma cell line A2058 (setting [2]) turned out to be 18.5 ± 1.7%. For the same compound, in the test with TSC2-/- MEFs cell line, the activity at 1 µM was found to be 67.3 ± 1.26% and the “selectivity to mTOR (in words)” value is “diminishing of selectivity to mTOR”.

Take `CCS(=O)(=O)N1CCN(c2nc(N3CCOCC3)nc(-n3c(C(F)F)nc4ccccc43)n2)CC1` [Compound 7, 4-(4-(2-(Difluoromethyl)-1H-benzo[d]imidazol-1-yl)-6-(4-(ethylsulfonyl)piperazin-1-yl)-1,3,5-triazin-2-yl)morpholine]: on PI3Kalpha, the remaining activity at 0.2 µM amounted to 35% and the “inhibitor activity against PI3K (in words)” value is “slightly decreased”. Also, the activity at 1 µM with melanoma cell line A2058 (setting [1]) is 30.7 ± 1.08%. The activity at 1 µM with melanoma cell line A2058 (setting [2]) was 56.7 ± 10.6%. Moreover, in the test on TSC2-/- MEFs cell line, the activity at 1 µM is 104 ± 4.27% and the “selectivity to mTOR (in words)” value was “notable reduced”.

Consider `C=CC(=O)N1CCN(c2nc(N3CCOCC3)nc(-n3c(C(F)F)nc4ccccc43)n2)CC1` [Compound 8, 1-(4-(4-(2-(Difluoromethyl)-1H-benzo[d]imidazol-1-yl)-6-morpholino-1,3,5-triazin-2-yl)piperazin-1-yl)prop-2-en-1-one], for which the remaining activity at 0.2 µM on PI3Kalpha was 8%. Besides, the values for the activity at 1 µM with melanoma cell line A2058 (setting [1]), in the test on melanoma cell line A2058 (setting [2]) and in the test with TSC2-/- MEFs cell line were 13 ± 0.01%, 23 ± 4.22% and 95 ± 7.44%, respectively.

For the compound `NCCN1CCN(c2nc(N3CCOCC3)nc(-n3c(C(F)F)nc4ccccc43)n2)CC1` [Compound 9, 2-(4-(4-(2-(Difluoromethyl)-1H-benzo[d]imidazol-1-yl)-6-morpholino-1,3,5-triazin-2-yl)piperazin-1-yl)ethanamine], on PI3Kalpha, the remaining activity at 0.2 µM worked out at 50%. Also, the values for the activity at 1 µM in the test with melanoma cell line A2058 (setting [1]), with melanoma cell line A2058 (setting [2]) and in the test on TSC2-/- MEFs cell line were 16.5 ± 0.24%, 30.9 ± 4.06% and 89.9 ± 9.5%, respectively.

Consider `C=CC(=O)NCCN1CCN(c2nc(N3CCOCC3)nc(-n3c(C(F)F)nc4ccccc43)n2)CC1` [Compound 10, N-(2-(4-(4-(2-(Difluoromethyl)-1H-benzo[d]imidazol-1-yl)-6-morpholino-1,3,5-triazin-2-yl)piperazin-1-yl)ethyl)acrylamide], for which, on PI3Kalpha, the remaining activity at 0.2 µM was determined as 20%. The activity at 1 µM came out at 3.99 ± 1.18% with melanoma cell line A2058 (setting [1]), 12.7 ± 1.69% with melanoma cell line A2058 (setting [2]) and 74.5 ± 5.9% in the test with TSC2-/- MEFs cell line.

Take `CCCCCCN1CCN(c2nc(N3CCOCC3)nc(-n3c(C(F)F)nc4ccccc43)n2)CC1` [Compound 11, 4-(4-(2-(Difluoromethyl)-1H-benzo[d]imidazol-1-yl)-6-(4-hexylpiperazin-1-yl)-1,3,5-triazin-2-yl)morpholine]: the remaining activity at 0.2 µM at PI3Kalpha turned out to be 45%. The figures for the activity at 1 µM in the test with melanoma cell line A2058 (setting [1]), with melanoma cell line A2058 (setting [2]) and in the test with TSC2-/- MEFs cell line were 85.2 ± 3.71%, 74 ± 10.3% and 85.7 ± 5.71%, respectively.

With `CCOCCN1CCN(c2nc(N3CCOCC3)nc(-n3c(C(F)F)nc4ccccc43)n2)CC1` [Compound 12, 4-(4-(2-(Difluoromethyl)-1H-benzo[d]imidazol-1-yl)-6-(4-(2-ethoxyethyl)piperazin-1-yl)-1,3,5-triazin-2-yl)morpholine], the remaining activity at 0.2 µM on PI3Kalpha is 42%. The figures for the activity at 1 µM in the test with melanoma cell line A2058 (setting [1]), in the test with melanoma cell line A2058 (setting [2]) and in the test on TSC2-/- MEFs cell line were 15.9 ± 2.46%, 24.4 ± 4.34% and 77.1 ± 4.62%, respectively.

In the case of `O=C(CCCCCNC(=O)COc1ccc(/C=C/C2=[N+]3C(=Cc4ccc(-c5cccs5)n4[B-]3(F)F)C=C2)cc1)NCCN1CCN(c2nc(N3CCOCC3)nc(-n3c(C(F)F)nc4ccccc43)n2)CC1` [Compound 13, (E)-3-(4-(2-((6-((2-(4-(4-(2-(Difluoromethyl)-1H-benzo[d]imidazol-1-yl)-6-morpholino-1,3,5-triazin-2-yl)piperazin-1-yl)ethyl)amino)-6-oxohexyl)amino)-2-oxoethoxy)styryl)-5,5-difluoro-7-(thiophen-2-yl)-5H-dipyrrolo[1,2-c:2′,1′-f][1,3,2]diazaborinin-4-ium-5-uide], on PI3Kalpha, the “activity (in words)” value was “active”. In addition, at PI3Kalpha, the remaining activity at 0.2 µM turned out to be 13%. Besides, the “binding to PI3Kgamma isoform (in words)” value on PI3Kgamma isoform is “binds to the PI3Kgamma isoform”. Besides, the activity at 1 µM came out at 47.5 ± 5.48% with melanoma cell line A2058 (setting [1]), 57.3 ± 6.86% with melanoma cell line A2058 (setting [2]) and 95.5 ± 9.81% with TSC2-/- MEFs cell line.

Consider `CN1CCN(c2nc(N3CCOCC3)nc(-n3cnc4ccccc43)n2)CC1` [Compound 17, reference compound], for which the remaining activity at 0.2 µM on PI3Kalpha was 83%. The values for the activity at 1 µM with melanoma cell line A2058 (setting [1]), in the test with melanoma cell line A2058 (setting [2]) and in the test with TSC2-/- MEFs cell line were 122 ± 2.58%, 83 ± 3.31% and 123 ± 5.78%, respectively.
